This passage reports IC50 results from patent US10927123B2, “Modulators of the beta-3 adrenergic receptor useful for the treatment or prevention of disorders related thereto” (Arena Pharmaceuticals, Inc., priority 2016, dated 2021).

Molecules are shown by their SMILES.

In this experiment the target is Beta-3 Adrenergic Receptor (Homo sapiens (Human), UniProt P13945). Briefly: HTRF cAMP antagonist assay (IC50 determination). Type of experiment: cell-based. Conditions: CHO-K1 cells stably expressing recombinant receptor; antagonism of isoproterenol at EC90; cAMP readout. The method, then: HTRF cAMP assays were performed according to manufacturer's instructions (Cisbio, cAMP Dynamic 2 Assay Kit; #62AM4PEJ). CHO-K1 cells stably expressing recombinant receptor were harvested and suspended in warm PBS to make a 300,000 cells/mL stock. This cell suspension was dispensed into 384 well assay plates (PerkinElmer ProxiPlate #6008280) at 5 μL per well (1500 cells/well) along with a cAMP standard curve.
Chain of Beta-3 Adrenergic Receptor (P13945 whole entry, species assumed): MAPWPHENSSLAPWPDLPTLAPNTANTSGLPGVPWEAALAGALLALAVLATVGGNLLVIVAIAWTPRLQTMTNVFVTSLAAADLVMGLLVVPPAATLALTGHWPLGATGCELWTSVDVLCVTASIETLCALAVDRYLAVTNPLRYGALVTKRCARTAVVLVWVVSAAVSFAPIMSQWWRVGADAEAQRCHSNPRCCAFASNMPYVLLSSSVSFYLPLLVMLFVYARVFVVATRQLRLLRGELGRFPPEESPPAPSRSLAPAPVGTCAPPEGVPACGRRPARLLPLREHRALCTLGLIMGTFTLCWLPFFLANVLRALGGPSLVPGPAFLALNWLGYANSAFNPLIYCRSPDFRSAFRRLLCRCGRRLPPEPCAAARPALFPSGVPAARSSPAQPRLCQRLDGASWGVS
Compounds were dissolved and serially diluted (5-fold) in DMSO to generate a 10-point dose response stock. The stock was then diluted 100-fold in assay buffer (PBS containing 1 mM IBMX) before a volume of 2.5 μL was added to the cells (the final, top concentration of compound in the dose-response is typically 10 or 100 μM). After a brief incubation, 2.5 μL of isoproterenol stock, prepared at a concentration 4 times its EC90 at the receptor of interest, was added to the wells. The EC90 for isoproterenol, a beta-adrenergic agonist, was determined in separate experiments using standard methods to measure agonist potencies.
Following a 1-hour incubation at room temperature, 5 μL of cAMP-D2 Reagent diluted in Lysis Buffer was added to each well followed by 5 μL of Cryptate Reagent. Plates were further incubated at room temperature for 1 hour prior to reading. Time resolved fluorescence measurements were collected on a suitable, HTRF-capable plate reader.
Counts from the plate reader were fit to the cAMP standard curve on the assay plate in order to determine cAMP concentrations in each well, and these values were used to construct dose-response curves to obtain IC50 values.
(In general: TR-FRET usually uses a lanthanide donor and a delayed reading to cut background.)
For the compound `CS(=O)(=O)c1cccc(OC[C@@H](O)CNC2COC3(CCN(S(=O)(=O)c4ccccc4)CC3)C2)c1` (stereo partly drawn) [Compound 47, (2S)-1-(3-(methylsulfonyl)phenoxy)-3-(8-(phenylsulfonyl)-1-oxa-8-azaspiro[4.5]decan-3-ylamino)propan-2-ol], the IC50 (commonly the concentration that inhibits the measured activity by half) is 82.1 nM. With `CCOc1ccc(-c2ccc(C3(N)CC3)cc2)cc1S(=O)(=O)N1CCC2(CC1)C[C@H](NC[C@H](O)COc1cccc(S(=O)(=O)C3(CO)CC3)c1)CO2` [Compound 188, (S)-1-((S)-8-(4′-(1-aminocyclopropyl)-4-ethoxybiphenyl-3-ylsulfonyl)-1-oxa-8-azaspiro[4.5]decan-3-ylamino)-3-(3-(1-(hydroxymethyl)cyclopropylsulfonyl)phenoxy)propan-2-ol], the IC50 amounted to 35 nM. With `COCS(=O)(=O)c1cccc(OC[C@@H](O)CN[C@H]2COC3(CCN(S(=O)(=O)c4ccc5ncccc5c4)CC3)C2)c1` [Compound 131, (S)-1-(3-(methoxymethylsulfonyl)phenoxy)-3-((R)-8-(quinolin-6-ylsulfonyl)-1-oxa-8-azaspiro[4.5]decan-3-ylamino)propan-2-ol], the IC50 was determined as 23.7 nM. Regarding `O=S(=O)(c1cccc(OC[C@@H](O)CN[C@H]2COC3(CCN(S(=O)(=O)c4ccc5ncccc5c4)CC3)C2)c1)C1CCC1` [Compound 114, (S)-1-(3-(cyclobutylsulfonyl)phenoxy)-3-((R)-8-(quinolin-6-ylsulfonyl)-1-oxa-8-azaspiro[4.5]decan-3-ylamino)propan-2-ol], the IC50 amounted to 52 nM.

Regarding `CS(=O)(=O)c1cccc(OC[C@@H](O)CN[C@H]2COC3(CCN(S(=O)(=O)c4ccc5ncccc5c4)CC3)C2)c1` [Compound 111, (S)-1-(3-(methylsulfonyl)phenoxy)-3-((R)-8-(quinolin-6-ylsulfonyl)-1-oxa-8-azaspiro[4.5]decan-3-ylamino)propan-2-ol], the IC50 turned out to be 31.1 nM. For `CS(=O)(=O)c1cccc(OC[C@@H](O)CNC2COC3(CCN(S(=O)(=O)c4cccc(Cl)c4)CC3)C2)c1` (stereo partly drawn) [Compound 31, (2S)-1-(8-(3-chlorophenylsulfonyl)-1-oxa-8-azaspiro[4.5]decan-3-ylamino)-3-(3-(methylsulfonyl)phenoxy)propan-2-ol], the IC50 was determined as 49.3 nM.

`NCCc1ccc(-c2cccc(S(=O)(=O)N3CCC4(CC3)C[C@@H](NC[C@H](O)COc3cccc(S(=O)(=O)C5(CO)CC5)c3)CO4)c2)cc1` [Compound 212, (S)-1-((R)-8-(4′-(2-aminoethyl)biphenyl-3-ylsulfonyl)-1-oxa-8-azaspiro[4.5]decan-3-ylamino)-3-(3-(1-(hydroxymethyl)cyclopropylsulfonyl)phenoxy)propan-2-ol]: the half-inhibitory concentration (IC50) is 26 nM.

Regarding `O=S(=O)(CCO)c1cccc(OC[C@@H](O)CN[C@H]2COC3(CCN(S(=O)(=O)c4cccc(-c5ncccc5F)c4)CC3)C2)c1` [Compound 126, (S)-1-((R)-8-(3-(3-fluoropyridin-2-yl)phenylsulfonyl)-1-oxa-8-azaspiro[4.5]decan-3-ylamino)-3-(3-(2-hydroxyethylsulfonyl)phenoxy)propan-2-ol], the IC50 is 126 nM. To `CCn1cc(S(=O)(=O)N2CCC3(CC2)C[C@@H](NC[C@H](O)COc2cccc(S(=O)(=O)C(C)C)c2)CO3)c(=O)c2ccccc21` [Compound 332, 1-ethyl-3-((R)-3-((S)-2-hydroxy-3-(3-(isopropylsulfonyl)phenoxy)propylamino)-1-oxa-8-azaspiro[4.5]decan-8-ylsulfonyl)quinolin-4(1H)-one] belongs 42.3 nM; to `CCOc1ccc(-c2ccc(CN)cc2)cc1S(=O)(=O)N1CCC2(CC1)C[C@H](NC[C@H](O)COc1cccc(S(=O)(=O)C(F)(F)CO)c1)CO2` [Compound 168, (S)-1-((S)-8-(4′-(aminomethyl)-4-ethoxybiphenyl-3-ylsulfonyl)-1-oxa-8-azaspiro[4.5]decan-3-ylamino)-3-(3-(1,1-difluoro-2-hydroxyethylsulfonyl)phenoxy)propan-2-ol], 15.4 nM; to `O=S(=O)(c1cccc(-c2ccc(CN3CCC3)cc2)c1)N1CCC2(CC1)C[C@H](NC[C@H](O)COc1cccc(S(=O)(=O)C3(CO)CC3)c1)CO2` [Compound 243, (S)-1-((S)-8-(4′-(azetidin-1-ylmethyl)biphenyl-3-ylsulfonyl)-1-oxa-8-azaspiro[4.5]decan-3-ylamino)-3-(3-(1-(hydroxymethyl)cyclopropylsulfonyl)phenoxy)propan-2-ol], 35 nM. To `CCOc1ccc(S(=O)(=O)N2CCC3(CC2)C[C@H](NC[C@H](O)COc2cccc(S(=O)(=O)C4(CO)CC4)c2)CO3)cc1-c1ccc(CN)cc1` [Compound 237, (S)-1-((S)-8-(4′-(aminomethyl)-6-ethoxybiphenyl-3-ylsulfonyl)-1-oxa-8-azaspiro[4.5]decan-3-ylamino)-3-(3-(1-(hydroxymethyl)cyclopropylsulfonyl)phenoxy)propan-2-ol] belongs 82 nM; to `CCOc1c(S(=O)(=O)N2CCC3(CC2)C[C@@H](NC[C@H](O)COc2cccc(S(=O)(=O)C4(CO)CC4)c2)CO3)ccc2ccccc12` [Compound 301, (S)-1-((R)-8-(1-ethoxynaphthalen-2-ylsulfonyl)-1-oxa-8-azaspiro[4.5]decan-3-ylamino)-3-(3-(1-(hydroxymethyl)cyclopropylsulfonyl)phenoxy)propan-2-ol], 357 nM.

Turning to `CC(C)Oc1ccc(-c2ccc(CN)cc2)cc1S(=O)(=O)N1CCC2(CC1)C[C@@H](NC[C@H](O)COc1cccc(S(=O)(=O)C3CC3)c1)CO2` [Compound 171, (S)-1-((R)-8-(4′-(aminomethyl)-4-isopropoxybiphenyl-3-ylsulfonyl)-1-oxa-8-azaspiro[4.5]decan-3-ylamino)-3-(3-(cyclopropylsulfonyl)phenoxy)propan-2-ol], the IC50 turned out to be 25 nM. Then `NCCc1ccc(-c2cccc(S(=O)(=O)N3CCC4(CC3)C[C@H](NC[C@H](O)COc3cccc(S(=O)(=O)C5(CO)CC5)c3)CO4)c2)cc1` [Compound 211, (S)-1-((S)-8-(4′-(2-aminoethyl)biphenyl-3-ylsulfonyl)-1-oxa-8-azaspiro[4.5]decan-3-ylamino)-3-(3-(1-(hydroxymethyl)cyclopropylsulfonyl)phenoxy)propan-2-ol], with 26.2 nM; and `CN1CCOc2ccc(S(=O)(=O)N3CCC4(CC3)C[C@@H](NC[C@H](O)COc3cccc(S(=O)(=O)CCO)c3)CO4)cc21` [Compound 84, (S)-1-(3-(2-hydroxyethylsulfonyl)phenoxy)-3-((R)-8-(4-methyl-3,4-dihydro-2H-benzo[6][1,4]oxazin-6-ylsulfonyl)-1-oxa-8-azaspiro[4.5]decan-3-ylamino)propan-2-ol], with 54.7 nM; and `O=S(=O)(c1cncc(Br)c1)N1CCC2(CC1)C[C@H](NC[C@H](O)COc1cccc(S(=O)(=O)C3(CO)CC3)c1)CO2` [Compound 186, (S)-1-((S)-8-(5-bromopyridin-3-ylsulfonyl)-1-oxa-8-azaspiro[4.5]decan-3-ylamino)-3-(3-(1-(hydroxymethyl)cyclopropylsulfonyl)phenoxy)propan-2-ol], with 78.6 nM. To `NCc1ccc(-c2cncc(S(=O)(=O)N3CCC4(CC3)C[C@@H](NC[C@H](O)COc3cccc(S(=O)(=O)CCO)c3)CO4)c2)cc1` [Compound 89, (S)-1-((R)-8-(5-(4-(aminomethyl)phenyl)pyridin-3-ylsulfonyl)-1-oxa-8-azaspiro[4.5]decan-3-ylamino)-3-(3-(2-hydroxyethylsulfonyl)phenoxy)propan-2-ol] belongs 110 nM.
